Experiments:
[1] = target: T1, hA2a (Homo sapiens (Human), UniProt P29274); experiment: Radioligand binding to hA2a membrane ([3H]-CGS21680); conditions: [3H]-CGS21680, 90 min at 25° C., read-out: Binding Affinity (IC50 nM) hA2a
Method: (§1) Binding affinity and specificities of the compounds against different subtype of human adenosine receptors (hA1, hA2A, hA2B and hA3) were characterized with cell membrane chromatography binding analysis.
(§2) The compounds at different concentrations were incubate with hA2a membrane (from PerkinElmer) and [^3H]-CGS21680 for 90 min at 25° C., meanwhile 100 μL 0.5% PEI solution was added into […]-96 GF/B filter plate for 60 min at 4° C., then […]-96 GF/B filter plate was washed twice with 50 ml wash buffer, the membrane mix was transferred into […]-96 GF/B filter plate, and the filter plate was washed 4 times before incubated at 55° C. for 10 min. At last, […] ULTIMA GOLD was added into each well, and CPM was read by TopCount.
(§3) The empty boxes in the tables below indicate data not available.

[2] = target: T2, hA1 (Homo sapiens (Human), UniProt P30542); experiment: Radioligand binding to hA1 membrane ([3H]-DPCPX); conditions: 50 min at 25° C., read-out: Binding Affinity (IC50 nM) hA1
T2 sequence (P30542 whole entry): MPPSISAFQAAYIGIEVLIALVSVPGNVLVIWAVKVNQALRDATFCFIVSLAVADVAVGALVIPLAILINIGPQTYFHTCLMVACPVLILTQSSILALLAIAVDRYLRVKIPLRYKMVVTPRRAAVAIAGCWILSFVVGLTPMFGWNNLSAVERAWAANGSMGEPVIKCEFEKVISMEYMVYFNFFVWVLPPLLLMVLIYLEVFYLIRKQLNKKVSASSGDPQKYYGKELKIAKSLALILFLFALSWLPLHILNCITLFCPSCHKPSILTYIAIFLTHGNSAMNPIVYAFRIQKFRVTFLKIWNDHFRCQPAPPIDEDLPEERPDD
Method: as §1
as §2, with “hA1” for “hA2a”, “[^3H]-8-Cyclopentyl-1,3-dipropylxanthine (DPCPX)” for “[^3H]-CGS21680”, “50” for “90”
as §3

[3] = target: T1, hA2a; experiment: cAMP inhibition assay in hA2a/CHO cells; assay type: cell-based; conditions: adenosine stimulation, read-out: cAMP & FLIPR IC50 (nM) hA2a
In short: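 CHO cells expressing human A2a, human A2b or mouse A2a, 5×10^3 cells/well, pre-incubated with compound 30 min at 37 °C, then stimulated with […] adenosine 30 min at 37 °C. cAMP read after 60 min room-temperature incubation with detection reagent.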

[4] = target: hA2b (Homo sapiens (Human), UniProt P29275); experiment: cAMP inhibition assay in hA2b/CHO cells; assay type: cell-based; conditions: adenosine stimulation, read-out: cAMP & FLIPR IC50 (nM) hA2b
hA2b, sequence (P29275 whole entry): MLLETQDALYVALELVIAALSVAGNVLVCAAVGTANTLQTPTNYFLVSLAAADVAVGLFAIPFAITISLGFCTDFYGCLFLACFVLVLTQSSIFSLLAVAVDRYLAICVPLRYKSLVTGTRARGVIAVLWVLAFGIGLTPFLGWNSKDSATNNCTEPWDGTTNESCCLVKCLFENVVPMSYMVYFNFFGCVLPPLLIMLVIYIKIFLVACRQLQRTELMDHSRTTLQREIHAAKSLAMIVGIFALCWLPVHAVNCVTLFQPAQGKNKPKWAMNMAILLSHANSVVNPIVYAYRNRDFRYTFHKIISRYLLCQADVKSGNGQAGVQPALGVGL
Method: (§4) hA2a/CHO, hA2b/CHO and mA2a/CHO (Genscript) were plated at 5×10^3 cells/well into 384-well polystyrene plates at the day of experiment. Compounds were pre-incubated with cells for 30 min at 37° C., 5% CO2. Then […] adenosine was added to the cells and incubated for 30 min at 37° C., 5% CO2. Detection reagent (CISBIO) was added and the plates were incubated for 60 min at room temperature. The signal was captured by Envision.

[5] = target: mA2a (Mus musculus (Mouse), UniProt Q60613); experiment: cAMP inhibition assay in mA2a/CHO cells; assay type: cell-based; conditions: adenosine stimulation, read-out: cAMP & FLIPR IC50 (nM) mA2a
mA2a, sequence (Q60613 whole entry): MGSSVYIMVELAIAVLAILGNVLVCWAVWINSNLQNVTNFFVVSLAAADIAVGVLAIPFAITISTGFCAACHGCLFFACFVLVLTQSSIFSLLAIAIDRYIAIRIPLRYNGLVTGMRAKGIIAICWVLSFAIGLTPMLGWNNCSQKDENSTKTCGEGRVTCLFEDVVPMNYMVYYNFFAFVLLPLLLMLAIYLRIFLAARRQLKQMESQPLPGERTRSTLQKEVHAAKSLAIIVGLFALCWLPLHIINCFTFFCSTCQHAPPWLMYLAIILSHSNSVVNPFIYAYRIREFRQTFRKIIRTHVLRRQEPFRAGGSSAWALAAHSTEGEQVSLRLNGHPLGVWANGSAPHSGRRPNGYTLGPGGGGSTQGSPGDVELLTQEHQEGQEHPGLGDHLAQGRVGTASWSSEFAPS
Method: as §4

[6] = target: T2, hA1; experiment: FLIPR inhibition assay in hADORA1/CHO (hA1 expressing) cells; assay type: cell-based; conditions: FLIPR calcium, adenosine stimulation
In short: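 CHO cells expressing human A1 were plated at 1×10^4 cells/well the day before, then loaded with FLIPR Calcium 5 dye for 60 min at 37 °C, 5% CO2. Compounds were added at several concentrations for 400 s before stimulation with […] adenosine. The calcium signal was recorded by FLIPR.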

[7] = hADORA1/CHO cells, read-out: cAMP & FLIPR IC50 (nM) hA1

T1 sequence (P29274 whole entry): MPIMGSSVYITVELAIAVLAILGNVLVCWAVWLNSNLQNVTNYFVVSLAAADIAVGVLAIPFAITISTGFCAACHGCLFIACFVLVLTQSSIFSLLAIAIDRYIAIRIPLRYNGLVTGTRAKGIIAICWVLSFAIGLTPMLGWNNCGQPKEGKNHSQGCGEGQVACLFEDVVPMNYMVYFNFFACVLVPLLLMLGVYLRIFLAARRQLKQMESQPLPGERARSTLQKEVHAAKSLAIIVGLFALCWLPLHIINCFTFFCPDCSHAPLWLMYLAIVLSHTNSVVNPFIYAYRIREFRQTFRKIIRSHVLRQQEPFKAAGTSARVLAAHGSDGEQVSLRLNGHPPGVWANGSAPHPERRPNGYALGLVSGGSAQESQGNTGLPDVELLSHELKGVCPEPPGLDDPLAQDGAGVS

Cn1cc(-c2c(-n3nccn3)nc(N)n3nc(Cc4c(F)cccc4F)nc23)ccc1=O [Example 25, 5-[5-amino-2-[(2,6-difluorophenyl)methyl]-7-(2H-1,2,3-triazol-2-yl)-[1,2,4]triazolo[1,5-c]pyrimidin-8-yl]-1-methyl-1,2-dihydropyridin-2-one]
IC50 [1]: 1.4 nM
IC50 [2]: 7.9 nM
IC50 [3]: 20 nM
IC50 [4]: 582 nM
IC50 [5]: 30 nM
IC50 [6, 7]: 21 nM

Nc1nc(-c2ccc(F)cc2)c(-c2ccc(=O)n(CCO)c2)c2nc(Cc3ncccc3F)nn12 [Example 95, 5-(5-amino-7-(4-fluorophenyl)-2-((3-fluoropyridin-2-yl)methyl)-[1,2,4]triazolo[1,5-c]pyrimidin-8-yl)-l-(2-hydroxyethyl)pyridin-2(1H)-one]
IC50 [3]: 3.7 nM
IC50 [4]: 241 nM
IC50 [5]: 8.9 nM
IC50 [6, 7]: 27 nM

Cc1cnc2ccc(-c3c(-c4ccc(F)cc4)nc(N)n4nc(CCN(C)C)nc34)cn12 [Example 120, 2-(2-(dimethylamino)ethyl)-7-(4-fluorophenyl)-8-(3-methylimidazo[l,2-a]pyridin-6-yl)-[l,2,4]tria zolo[1,5-c]pyrimidin-5-amine]
IC50 [3]: 0.6 nM
IC50 [4]: 146 nM
IC50 [5]: 9.5 nM
IC50 [6, 7]: 66.7 nM

Cc1cnc2ccc(-c3c(N4CCC4)nc(N)n4nc(Cc5c(F)cccc5F)nc34)cn12 [Example 124, 7-(azetidin-l-yl)-2-(2,6-difluorobenzyl)-8-(3-methylimidazo[1,2-a]pyridin-6-yl)-[1,2,4]triazolo [1,5-c]pyrimidin-5-amine]
IC50 [3]: 0.1 nM
IC50 [4]: 23.3 nM
IC50 [5]: 3.9 nM
IC50 [6, 7]: 16 nM

Cn1cc(-c2c(Cl)nc(N)n3nc(Cc4c(F)cccc4F)nc23)ccc1=O [Example 28, 5-(5-amino-7-chloro-2-(2,6-difluorobenzyl)-[1,2,4]triazolo[1,5-c]pyrimidin-8-yl)-1-methylpyridin-2(1H)-one]
IC50 [3]: 158 nM
IC50 [4]: 6420 nM
IC50 [5]: 217 nM
IC50 [6, 7]: 1150 nM

Nc1nc(-c2ccc(F)cc2)c(-c2ccc3ncccc3c2)c2nc(Cc3ncccc3F)nn12 [Example 89, 7-(4-fluorophenyl)-2-[(3-fluoropyridin-2-yl)methyl]-8-(quinolin-6-yl)-[1,2,4]triazolo[1,5-c]pyrimidin-5-amine]
IC50 [3]: 0.4 nM
IC50 [4]: 82 nM
IC50 [5]: 1.3 nM
IC50 [6, 7]: 132 nM

Cn1cc(-c2c(-c3ccc4c(ccn4C)c3)nc(N)n3nc(Cc4ncccc4F)nc23)ccc1=O [Example 97, 5-(5-amino-2-((3-fluoropyridin-2-yl)methyl)-7-(1-methyl-1H-indol-5-yl)-[1,2,4]triazolo[1,5-c]pyrimidin-8-yl)-1-methylpyridin-2(1H)-one]
IC50 [3]: 47 nM
IC50 [4]: 1720 nM
IC50 [5]: 120 nM
IC50 [6, 7]: 19 nM

Cc1cc(-c2c(-c3ncco3)nc(N)n3nc(Cc4ncccc4F)nc23)cc(Cl)n1 [Example 82, 8-(2-chloro-6-methylpyridin-4-yI)-2-((3-fluoropyridin-2-yl)methyl)-7-(oxazol-2-yl)-[l,2,4]triazolo [1,5-c]pyrimidin-5-amine]
IC50 [3]: 25 nM
IC50 [4]: 2910 nM
IC50 [5]: 63 nM
IC50 [6, 7]: 2640 nM

Nc1nc(-c2ccc(F)cc2)c(-c2ccnc(C(F)(F)F)c2)c2nc(Cc3c(F)cccc3F)nn12 [Example 4, 2-[(2,6-difluorophenyl)methyl]-7-(4-fluorophenyl)-8-[2-(trifluoromethyl)pyridin-4-yl]-[1,2,4]triazolo[1,5-c]pyrimidin-5-amine]
IC50 [3]: 52 nM
IC50 [4]: 254 nM
IC50 [5]: 24 nM
IC50 [6, 7]: 511 nM

Cc1nc(Cc2nc3c(-c4ccc5nccn5c4)c(-c4ccc(F)cc4)nc(N)n3n2)cs1 [Example 68, 7-(4-fluorophenyl)-8-[imidazo[1,2-a]pyridin-6-yl]-2-[(2-methyl-1,3-thiazol-4-yl)methyl]-[1,2,4]triazolo[1,5-c]pyrimidin-5-amine]
IC50 [3]: 3.2 nM
IC50 [4]: 614 nM
IC50 [5]: 12 nM
IC50 [6, 7]: 29 nM

Nc1nc(-c2ccc(F)cc2)c(-c2ccc(=O)n(C3CS(=O)(=O)C3)c2)c2nc(Cc3c(F)cccc3F)nn12 [Example 60, 5-(5-amino-2-(2,6-difluorobenzyl)-7-(4-fluorophenyl)-[1,2,4]triazolo[1,5-c]pyrimidin-8-yl)-1-(1,1-dioxidothietan-3-yl)pyridin-2(1H)-one]
IC50 [3]: 56 nM
IC50 [4]: 3300 nM
IC50 [5]: 16 nM
IC50 [6, 7]: 40 nM

Cc1cc(-c2c(-c3ccc(F)cc3)nc(N)n3nc(Cc4cccc(Cl)n4)nc23)ccn1 [Example 15, 2-[(6-chloropyridin-2-yl)methyl]-7-(4-fluorophenyl)-8-(2-methylpyridin-4-yl)-[1,2,4]triazolo[1,5-c]pyrimidin-5-amine]
IC50 [3]: 46 nM
IC50 [4]: 582 nM
IC50 [5]: 88 nM
IC50 [6, 7]: 27 nM

Cc1cc(-c2c(-c3ncco3)nc(N)n3nc(Cc4c(F)cccc4F)nc23)cc(C2CC2)n1 [Example 84, 8-(2-cyclopropyl-6-methylpyridin-4-yl)-2-(2,6-difluorobenzyl)-7-(oxazol-2-yl)-[1,2,4]triazolo[1,5-c]pyrimidin-5-amine]
IC50 [3]: 60 nM
IC50 [4]: 10000 nM
IC50 [5]: 428 nM
IC50 [6, 7]: 2720 nM

Cn1cc(-c2c(-c3nccs3)nc(N)n3nc(Cc4c(F)cccc4F)nc23)ccc1=O [Example 44, 5-(5-amino-2-(2,6-difluorobenzyl)-7-(thiazol-2-yl)-[1,2,4]triazolo[1,5-c]pyrimidin-8-yl)-l-methyl pyridin-2(lH)-one]
IC50 [3]: 4.3 nM
IC50 [4]: 97 nM
IC50 [5]: 5.9 nM
IC50 [6, 7]: 13 nM

Nc1nc(-c2ccc(F)cc2)c(-c2ccc(=O)n(C3CC3)c2)c2nc(Cc3ncccc3F)nn12 [Example 36, 5-(5-amino-7-(4-fluorophenyl)-2-((3-fluoropyridin-2-yl)methyl)-[1,2,4]triazolo[1,5-c]pyrimidin-8-yl)-1-cyclopropylpyridin-2(1H)-one]
IC50 [3]: 20 nM
IC50 [4]: 408 nM
IC50 [5]: 31 nM
IC50 [6, 7]: 45 nM

Cn1cc(-c2c(-c3ccccn3)nc(N)n3nc(Cc4c(F)cccc4F)nc23)ccc1=O [Example 92, 5-[5-amino-2-[(2,6-difluorophenyl)methyl]-7-(pyridin-2-yl)-[1,2,4]triazolo[1,5-c]pyrimidin-8-yl]-1-methyl-1,2-dihydropyridin-2-one]
IC50 [3]: 8 nM
IC50 [4]: 680 nM
IC50 [5]: 11 nM
IC50 [6, 7]: 13 nM

Cn1cnc2ccc(-c3c(-c4ncco4)nc(N)n4nc(Cc5ncccc5F)nc34)cc21 [Example 90, 2-((3-fluoropyridin-2-yl)methyl)-8-(1-methyl-1H-benzo[d]imidazol-6-yl)-7-(oxazol-2-yl)-[1,2,4] triazolo[1,5-c]pyrimidin-5-amine]
IC50 [3]: 1.8 nM
IC50 [4]: 48 nM
IC50 [5]: 3.5 nM
IC50 [6, 7]: 72 nM

Cn1cnc2ccc(-c3c(-c4ccc(F)cc4)nc(N)n4nc(Cc5ncccc5F)nc34)cc21 [Example 69, 7-(4-fluorophenyl)-2-((3-fluoropyridin-2-yl)methyl)-8-(1-methyl-1H-benzo[d]imidazol-6-yl)-[1,2, 4]triazolo[l,5-c]pyrimidin-5-amine]
IC50 [3]: 0.1 nM
IC50 [4]: 4.69 nM
IC50 [5]: 0.3 nM
IC50 [6, 7]: 22 nM

Nc1nc(-c2ccc(F)cc2)c(-c2ccc3nccn3c2)c2nc(Cc3ncccc3OC(F)F)nn12 [Example 73]
IC50 [3]: 0.1 nM
IC50 [4]: 4.8 nM
IC50 [5]: 0.4 nM
IC50 ([6]; cAMP & FLIPR IC50 (nM) hA1, hADORA1/CHO cells): 11 nM

Source: US10858365B2, “Triazolo-pyrimidine compounds and uses thereof” (Dizal (Jiangsu) Pharmaceutical Co., Ltd., priority 2018, dated 2020)
